Measurements taken from the supplement of paper PMC10307832.

Tests used:
Experiment in all cases: relative viability (nuclei count vs DMSO), 5 days (fraction); higher = more cells survive
BMX-IN-1 + Trametinib = compound: C=CC(=O)Nc1cc(-n2c(=O)ccc3cnc4ccc(-c5ccc(NS(C)(=O)=O)cc5)cc4c32)ccc1C [BMX-IN-1] + CC(=O)Nc1cccc(-n2c(=O)n(C3CC3)c(=O)c3c(Nc4ccc(I)cc4F)n(C)c(=O)c(C)c32)c1 [Trametinib] (partner 0.02 µM)
Procedure, shortened: (§1)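 Nuclei were stained with Hoechst during a one-step fixation (final 0.05% Triton X-100, 1% formaldehyde, 1 ug/ml Hoechst) carried out 5 days after dosing, then counted on 4× images. The cells, lung cancer lines in 1536-well plates, had been dosed by pin tool the day after seeding with one drug alone or a fixed anchor-drug dose plus five library-drug doses (not always all listed) in √10 steps. Relative viability is the nuclei count in treated wells divided by that in vehicle wells, and each value is the median of duplicate plates.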

BMX-IN-1 + Luminespib = compound: C=CC(=O)Nc1cc(-n2c(=O)ccc3cnc4ccc(-c5ccc(NS(C)(=O)=O)cc5)cc4c32)ccc1C [BMX-IN-1] + CCNC(=O)c1noc(-c2cc(C(C)C)c(O)cc2O)c1-c1ccc(CN2CCOCC2)cc1 [Luminespib] (partner 0.01 µM)
Procedure, shortened: as §1

Ibrutinib + Phenformin = compound: C=CC(=O)N1CCC[C@@H](n2nc(-c3ccc(Oc4ccccc4)cc3)c3c(N)ncnc32)C1 [Ibrutinib] + N=C(N)NC(=N)NCCc1ccccc1 [Phenformin] (partner 250 µM)
Procedure, shortened: as §1

Ibrutinib + Navitoclax = compound: C=CC(=O)N1CCC[C@@H](n2nc(-c3ccc(Oc4ccccc4)cc3)c3c(N)ncnc32)C1 [Ibrutinib] + CC1(C)CCC(c2ccc(Cl)cc2)=C(CN2CCN(c3ccc(C(=O)NS(=O)(=O)c4ccc(N[C@H](CCN5CCOCC5)CSc5ccccc5)c(S(=O)(=O)C(F)(F)F)c4)cc3)CC2)C1 [Navitoclax] (partner 0.5 µM)
Procedure, shortened: as §1

Cell Line	relative viability (BMX-IN-1 + Trametinib; first compound 0.02 µM)	relative viability (BMX-IN-1 + Trametinib; first compound 0.2 µM)	relative viability (BMX-IN-1 + Trametinib; first compound 0.6325 µM)	relative viability (BMX-IN-1 + Trametinib; first compound 2 µM)	relative viability (BMX-IN-1 + Luminespib; first compound 0.02 µM)	relative viability (BMX-IN-1 + Luminespib; first compound 0.2 µM)	relative viability (BMX-IN-1 + Luminespib; first compound 0.6325 µM)	relative viability (BMX-IN-1 + Luminespib; first compound 2 µM)	relative viability (Ibrutinib + Phenformin; first compound 0.005 µM)	relative viability (Ibrutinib + Phenformin; first compound 0.01581 µM)	relative viability (Ibrutinib + Phenformin; first compound 0.05 µM)	relative viability (Ibrutinib + Phenformin; first compound 0.1581 µM)	relative viability (Ibrutinib + Phenformin; first compound 0.5 µM)	relative viability (Ibrutinib + Navitoclax; first compound 0.005 µM)	relative viability (Ibrutinib + Navitoclax; first compound 0.01581 µM)	relative viability (Ibrutinib + Navitoclax; first compound 0.05 µM)	relative viability (Ibrutinib + Navitoclax; first compound 0.1581 µM)	relative viability (Ibrutinib + Navitoclax; first compound 0.5 µM)
PC-3 [JPC-3]	0.697	0.712	0.738	0.677	0.82	0.757	0.709	0.68	0.47	0.452	0.467	0.473	0.391	0.82	0.805	0.598	0.824	0.488
NCI-H2228	0.41	0.596	0.481	0.488	0.176	0.138	0.108	0.13	0.378	–	0.346	0.263	0.285	0.859	0.838	0.932	0.911	0.836
NCI-H1650	0.576	0.539	0.682	0.611	0.205	0.198	0.221	0.203	0.403	0.358	0.353	0.348	0.287	0.998	0.932	1.24	1.25	1.1
LCLC-103H	0.753	0.758	0.736	0.683	1.1	0.933	0.956	0.882	0.334	0.282	0.3	0.369	0.275	–	–	–	–	–
HCC-15	0.268	0.411	0.388	0.396	0.571	0.363	0.297	0.369	0.571	0.477	0.524	0.408	0.53	0.741	0.62	0.701	0.727	0.673
UMC-11	0.831	0.727	0.763	0.738	1.17	1.24	1.19	1.03	0.29	0.312	0.316	0.337	0.362	0.308	0.305	0.292	0.298	0.374
NCI-H2087	0.204	0.174	0.214	0.218	0.192	0.179	0.188	0.133	0.494	0.46	0.493	–	0.427	1.05	0.952	1.12	1	0.939
NCI-H3122	0.228	0.253	0.238	0.272	0.114	0.0826	0.103	0.0683	0.363	0.359	0.414	0.358	0.406	1.06	0.971	1.06	0.956	1.06
NCI-H661	0.634	0.597	0.642	0.535	1	0.916	1.03	0.863	0.26	0.281	0.252	0.287	0.271	–	–	–	–	–
NCI-H1703	–	–	–	–	–	–	–	–	–	–	–	–	–	0.896	0.96	1.05	1.17	0.731
NCI-H2342	0.834	0.768	0.85	0.791	0.774	0.765	0.707	0.703	0.472	0.56	0.57	0.455	0.452	–	–	–	–	–
NCI-H838	0.605	0.518	0.562	0.568	0.245	0.291	0.302	0.294	0.492	0.491	0.581	0.519	0.537	1.18	1.12	1.23	1.17	1.21
ABC-1	–	–	–	–	0.586	0.571	0.359	0.322	0.185	0.271	0.214	0.24	0.29	–	–	–	–	–
NCI-H441	0.451	0.53	0.613	0.548	0.384	0.428	0.56	0.279	1.01	0.82	0.912	0.988	1.01	0.561	0.556	0.601	0.731	0.733
NCI-H2126	0.55	0.55	0.592	0.603	1	0.974	1.17	0.909	0.485	0.474	0.495	0.551	0.52	–	0.803	0.801	0.861	0.588
NCI-H358	0.119	0.124	0.127	0.123	0.444	0.308	0.405	0.327	0.23	–	0.178	0.202	0.174	–	–	–	–	–
SW 900	1.12	0.831	0.816	0.807	0.172	0.182	0.165	0.179	–	–	0.588	0.669	0.618	–	–	–	–	–
NCI-H1299	–	–	–	–	–	–	–	–	–	–	–	–	–	1.07	1.02	1.11	1.07	1.04
EBC-1	–	–	–	–	–	–	–	–	–	–	–	–	–	0.441	0.433	0.516	0.349	0.388
HCC-366	0.36	0.352	0.376	0.361	–	–	–	–	0.63	0.595	0.593	0.543	0.665	0.986	0.977	1.06	–	–
IA-LM	–	–	–	–	–	–	–	–	–	–	–	–	–	0.768	0.853	0.79	0.79	0.951
NCI-H650	1.01	0.912	0.979	0.919	0.789	0.831	0.914	0.773	0.457	0.456	0.372	0.492	0.493	–	–	–	–	–
NCI-H1563	–	–	–	–	0.549	0.461	0.523	0.521	0.695	0.668	0.652	0.65	0.657	–	–	–	–	–
A549	–	–	–	–	–	–	–	–	0.21	0.135	0.159	0.163	0.152	1.26	1.2	1.23	1.3	1.19
